A short description of data set [1]: Acute toxicity (DL50) in the mouse. Format: in vivo. The note with it: in vivo. From the text:
*1 DL50 in the mouse mg/kg iv.
Examples of differences between toxicity (DL50 in
the mouse) by intravenous administration and oral
administration in mg/kg. Variation in therapeutic

For data set [2], the system named is gastric secretion. As to the kind of experiment: Anti-secretive activity in the rat with lig. pylorus, iv. The class given is in vivo.
For data set [3], the system named is gastric secretion. Put plainly: Anti-secretive activity in the rat by gastric stimulus, oral. The class given is in vivo. To be noted: oral (Table 1), read-out: Activity B: anti-secretive activity ED50.
Procedure: *3 Anti-secretive activity in the rat by gastric stimulus, ED50 mg/k
Data set [4] has as its system gastric secretion. As to the kind of experiment: Anti-secretive activity, oral (comparison of iv and oral therapeutic coefficient). The class given is in vivo. To be noted: oral (Table 2). From the text: | *6 Anti-secretive activity ED50 oral | *7 Therapeutic coefficient oral
Data set [5] has as its system transit through the stomach and intestine. As to the kind of experiment: Anti-spastic activity, vegetable carbon (charcoal) test, rate of transit through the stomach and intestine. The class given is in vivo, mice. The note with it: for ED50: Mus musculus, 2 h; for Antispastic activity, in words: in vivo. As for the experimental part:
Particularly marked is the anti-spastic activity which the present compounds exercise on the entire digestive system. Measured in the mouse, using the vegetable carbon test (rate of transit through the stomach and intestine), this activity is in some cases comparatively greater than the anti-secretive activity (Table 3).
(*)The antispastic activity is measured in mice of an average weight of […]
± 3 g by administering a suspension of charcoal in gum arabic and
checking after two hours whether the charcoal has reached the initial
portion of the colon. In non-treated subjects the charcoal reaches this
transit of the charcoal. Evaluation of the results is effected as
ED50 in mg/kg body weight of the animal, i.e., the dose at which the […]

The subject of data set [6] is gastric secretion. Put plainly: Comparison of antisecretive activity, rats with tied pylorus, oral aqueous suspension. Format: in vivo. To be noted: oral; for ED50: Rattus norvegicus, po, read-out: Antisecretive activity (dose which reduces the gastric secretion by 50%).
For data set [7], the system named is gastric lesions from Indomethacin. As to the kind of experiment: Protective activity against gastric lesions due to Indomethacin. The class given is in vivo, rats. To be noted: oral. As for the experimental part: The activity is defined as the dose in mg/kg of body weight to the animal, which prevents in 50% of the treated subjects arising of lesions due to Indomenthacin.
The protective preparations are administered orally in aqueous suspension.

The nature of another data set: Solubility. The class given is physicochemical. To be noted: for Solubility in water: in words.
For data set [8] the following is noted: rat, in vivo, po.
The conditions of data set [9]: dog, in vivo, po.
A short description of data set [10]: Stability in conventional preservation tests and light sensitiveness. The class given is physicochemical. The note with it: oral forms (capsules, tablets).
A short description of data set [11]: Tolerability in humans, prolonged oral administration. Format: in vivo. The note with it: several weeks, 500 to 1600 mg.

Structures can show the parent of a compound that is named as a salt. Where two headings read alike, the source gives them in different places.

For `O=C(N[C@@H](Cc1c[nH]c2ccccc12)C(=O)O)c1ccc(Cl)cc1` [Ex.18 (CR501), N-p-chloro-benzoyl-L-tryptophane], the LD50 in data set [1] (iv (Table 1), read-out: DL50 value) was 263 mg/kg; in data set [1] (oral (Table 2), read-out: DL50 oral), 1100 mg/kg. For the same compound, the ED50 in the data set with gastric secretion [2] (Rattus norvegicus, iv, compared with anti-spastic activity (Table 3), read-out: Anti-secretive activity ED50) is 139 mg/kg; in the data set with gastric secretion [2] (Rattus norvegicus, iv, i.v. (Table 2), read-out: Anti-secretive activity ED50 i.v.), 139 mg/kg; in the data set on gastric secretion [2] (rat with lig. pylorus, iv (Table 1), read-out: Activity A: anti-secretive activity ED50), 139 mg/kg; in the data set on gastric secretion [3], 110 mg/kg; with gastric secretion [4], 150 mg/kg; in [5] (mouse, vegetable carbon test (Table 3), read-out: Anti-spastic activity ED50) it was 82 mg/kg. The ED50 worked out at 248 mg/kg in data set [5] (po, charcoal after two hours, orally (later Table 3), read-out: Antispastic activity ED50); 171 mg/kg in the data set on gastric secretion [6] (2.5 h, 2.5 hrs); 143 mg/kg with gastric secretion [6] (5 h, 5 hrs); 150 mg/kg with gastric secretion [6] (10 h, 10 hrs); 234 mg/kg in data set [7] (Rattus norvegicus, po, 4 h, Indomethacin 16 mg/kg orally, read-out: Protective activity ED50). The “Therapeutic coefficient iv. 2/3” value with gastric secretion [2] (iv, DL50 iv / ED50 iv (Table 2)) was determined as 1.9. Besides, the Therapeutic coefficient oral in the data set with gastric secretion [4] is recorded as 7.3. Further, in [5] (anti-secretive ED50 / anti-spastic ED50 (Table 3)), the “Ratio 3/2” value stood at 1.7. Besides, the “Antispastic activity, in words” value in [5] (mouse) is “active as antispastic”. The “Start of antisecretive activity from administration” value in the data set on gastric secretion [6] was below 5 h. The “Antisecretive activity (dose which reduces the gastric secretion by 50%)” value in the data set on gastric secretion [6] (15 hrs, 900 min) is listed as 361 mg/kg. The “Extent in time of antisecretive activity” value in the data set with gastric secretion [6] (with a gradual sinking) is on record as “up to 15 hours”. In addition, the “Protective activity against Indomethacin lesions, in words” value in [7] is “efficient activity in preventing gastric lesions”. Moreover, the Solubility in water entry is recorded as “water-insoluble” in the data set “Solubility” (listed as CR 501) and “insoluble in water” in the data set “Solubility” (listed as CR501). The “Acute and chronical toxicity” value in data set [8] and in data set [9] was “without exhibiting any appreciable symptom of toxicity” each time.

Regarding `O=C(N[C@@H](Cc1c[nH]c2ccccc12)C(=O)O)c1ccc(Cl)cc1` [CR 501 calcium salt, N-p-chloro-benzoyl-L-tryptophane calcium salt], the “Antispastic activity ED50” value in data set [5] (charcoal after two hours, orally (later Table 3), 120 min, calcium salt, 120 min) is on record as 210 mg/kg. Also, in data set [5] (mouse, calcium salt), the “Antispastic activity, in words” value is “more particularly effective as antispastic”. The “Antisecretive activity (dose which reduces the gastric secretion by 50%)” value was 210 mg/kg with gastric secretion [6] (2.5 hrs, calcium salt, 150 min); 165 mg/kg in the data set with gastric secretion [6] (5 hrs, calcium salt, 300 min); 142 mg/kg in the data set with gastric secretion [6] (10 hrs, calcium salt, 600 min); 170 mg/kg in the data set with gastric secretion [6] (15 hrs, calcium salt, 900 min). The “Protective activity ED50” value in data set [7] (Indomethacin 16 mg/kg orally, 240 min, calcium salt) came out at 145 mg/kg/os. The Solubility in acetone entry in “Solubility” (acetone) is recorded as “soluble”. Also, the Solubility in ethanol result in “Solubility” (ethanol, listed as Example 53, calcium salt) is “soluble”. Besides, the Solubility in methanol entry in “Solubility” (methanol, listed as Example 53, calcium salt) is recorded as “soluble”. Also, in “Solubility” (listed as Example 53, calcium salt), the Solubility in water result is recorded as “Very slightly soluble”. For the same compound, in data set [10], the Light sensitiveness entry is reported as “absence of light sensitiveness”. Further, the “Stability on conventional preservation tests” value in [10] is given as “thorough stability”. The “Side effects in humans” value in data set [11] is “does not lead to any specific side effect”.

For the origin of these results see patent publication US4000297A, “N-p-chlorobenzoyl tryptophane, salts and compositions thereof” (priority 1971, dated 1976).
